Data taken from patent US20050245533A1, “Inhibitors of the 11-beta-hydroxysteroid dehydrogenaseType 1 enzyme and their therapeutic application” (priority 2004, published 2005).

Key:
[1] = target: T1, truncated human 11β-HSD-1 enzyme (24-287AA) (Homo sapiens, UniProt P28845); test: human 11β-HSD-1 enzymatic Scintillation Proximity Assay (SPA); assay type: biochemical
T1 construct: truncated human 11β-HSD-1 enzyme (24-287AA); made in house; host or cells: E. coli (lysate)
Method: The ability of test compounds to inhibit human 11-βHSD-1 enzymatic activity in vitro was evaluated in a Scintillation Proximity Assay (SPA). Tritiated-cortisone substrate, NADPH cofactor and titrated compound were incubated with truncated human 11β-HSD-1 enzyme (24-287AA) at room temperature to allow the conversion to cortisol to occur. The reaction was stopped by adding a non-specific 11β-HSD inhibitor, 18β-glycyrrhetinic acid. The tritiated cortisol generated was then captured by a mixture of an anti-cortisol monoclonal antibody and SPA beads coated with anti-mouse antibodies. The reaction plate was shaken at room temperature and the radioactivity bound to SPA beads was then measured on a β-scintillation counter. The 11-βHSD-1 assay was carried out in 96-well microtiter plates in a total volume of 220 μl. To start the assay, 188 μl of master mix which contains 17.5 nM ^3H-cortisone, 157.5 nM cortisone, and […] NADPH was added to the wells. In order to drive the reaction in the forward direction, 1 mM G-6-P was also added. […] After shaking for 30 minutes, plates were read on a liquid scintillation counter Topcount. Percent inhibition was calculated based on the background and the maximal signal. […] Percent of inhibition of each compound was calculated relative to the maximal signal and IC50 curves were generated. […]

human 11-β-HSD-2 = target: T2, human 11-β-HSD-2 (Homo sapiens, UniProt P80365); test: 11β-HSD-2 Scintillation Proximity Assay (tritiated cortisol, NAD+); assay type: biochemical; conditions: human enzyme, SPA
T2 sequence (P80365 1-405): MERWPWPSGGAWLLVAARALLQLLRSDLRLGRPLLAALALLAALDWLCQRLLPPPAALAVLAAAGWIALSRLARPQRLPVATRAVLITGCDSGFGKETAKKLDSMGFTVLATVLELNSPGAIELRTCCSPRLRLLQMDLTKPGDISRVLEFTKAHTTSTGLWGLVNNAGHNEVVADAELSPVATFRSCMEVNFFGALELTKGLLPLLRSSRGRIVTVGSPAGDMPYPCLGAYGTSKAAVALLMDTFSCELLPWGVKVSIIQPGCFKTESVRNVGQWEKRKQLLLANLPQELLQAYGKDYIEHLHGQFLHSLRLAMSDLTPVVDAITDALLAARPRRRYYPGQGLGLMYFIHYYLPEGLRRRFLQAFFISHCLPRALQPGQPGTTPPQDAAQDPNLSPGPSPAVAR

male CD-1 mice = test: Mouse dehydrocorticosterone challenge model; assay type: in vivo; conditions: 100 mpk, followed by 11-DHC challenge, 30 min after challenge
Method: Male CD-1 (18-22 g) mice (Charles River, Madison, Wis.) were group housed and allowed free access to food and water. Mice are brought into a quiet procedure room for acclimation the night before the study. Animals are dosed with vehicle or compound at various times (pretreatment period) before being challenged with 11-dehydrocorticosterone (Steraloids Inc., Newport, R.I.). Thirty minutes after challenge, the mice are euthanized with CO2 and blood samples (EDTA) are obtained by cardiac puncture and immediately placed on ice. Blood samples were then spun, the plasma was removed, and the samples frozen until further analysis was performed. Corticosterone levels were obtained by ELISA (American Laboratory Prod., Co., Windham, N.H.) or HPLC/mass spectroscopy.

ob/ob mice = test: ob/ob mouse model of type 2 diabetes; assay type: in vivo; conditions: three weeks
Method: Male B6.VLep^ob(−/−) (ob/ob) mice and their lean littermates (Jackson Laboratory, Bar Harbor, Me.) were group housed and allowed free access to food (Purina 5015) and water. Mice were 6-7 weeks old at the start of each study. On day 0, animals were weighed and postprandial glucose levels determined (Medisense Precision-X™ glucometer, Abbott Laboratories). […] Animals were weighed, and postprandial glucose measurements were taken weekly throughout the study. On the last day of the study, 16 hours post dose (unless otherwise noted) the mice were euthanized via CO2, and blood samples (EDTA) were taken by cardiac puncture and immediately placed on ice. Whole blood measurements for HbA1c were taken with hand held meters (A1c NOW, Metrika Inc., Sunnyvale Calif.). Blood samples were then spun and plasma was removed and frozen until further analysis. The plasma triglyceride levels were determined according to instructions by the manufacturer (Infinity kit, Sigma Diagnostics, St. Louis Mo.).

T1 sequence (P28845 24-287): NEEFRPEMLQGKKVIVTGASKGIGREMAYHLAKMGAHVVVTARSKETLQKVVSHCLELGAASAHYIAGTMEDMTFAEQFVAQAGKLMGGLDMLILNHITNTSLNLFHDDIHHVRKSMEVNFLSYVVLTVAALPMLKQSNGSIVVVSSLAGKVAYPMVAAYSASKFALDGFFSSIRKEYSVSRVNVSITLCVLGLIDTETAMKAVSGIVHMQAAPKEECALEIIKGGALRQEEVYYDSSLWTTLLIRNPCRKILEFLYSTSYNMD

## CC(C(=O)NC1C2CC3CC(C2)CC1C3)N1CCC(O)CC1 (stereo not shown) [Compound C, N-2-Adamantyl-2-(4-hydroxypiperidin-1-yl)propanamide]
[1]
  IC50: 34 nM
Human 11-β-HSD-2
  IC50: > 10000 nM
Male CD-1 mice; pretreatment period 0.5 hours
  Plasma corticosterone level: 203 ± 19
Male CD-1 mice; pretreatment period 5 hours
  Plasma corticosterone level: 382 ± 40
ob/ob mice; 30 mpk twice daily
  % HbA1c: 7.4 ± 0.7%
  Plasma glucose: 227 ± 17 mg/dL
  Plasma triglycerides: 288 ± 26 mg/dL
ob/ob mice; 100 mpk twice daily
  % HbA1c: 5.7 ± 0.3%
  Plasma glucose: 186 ± 18 mg/dL
  Plasma triglycerides: 323 ± 34 mg/dL
